Measurements reported in patent US8906925B2, “Pyrido[4,3-B]indoles containing rigid moieties” (Medivation Technologies, Inc., priority 2008, dated 2014).
Read-outs that look alike come from different tables or passages of the source.

How the values were obtained:
[1] = target: human recombinant serotonin (5-Hydroxytryptamine) 5-HT7 receptor (Homo sapiens, UniProt P34969); assay: Serotonin 5-HT7 radioligand binding ([3H]LSD); conditions: for inhibition at 1 µM: compound at 1 μM
Source text: Receptor proteins were filtered and washed, the filters were then counted to determine [^3H]LSD specifically bound.

[2] = target: T1, human recombinant adrenergic α1D receptor (Homo sapiens, UniProt P25100); assay: Adrenergic α1D radioligand binding ([3H]Prozosin); conditions: compound at 1 μM
T1 construct: expressed in transfected cells; host or cells: human embryonic kidney (HEK-293) cells
T1 sequence (P25100 1-572): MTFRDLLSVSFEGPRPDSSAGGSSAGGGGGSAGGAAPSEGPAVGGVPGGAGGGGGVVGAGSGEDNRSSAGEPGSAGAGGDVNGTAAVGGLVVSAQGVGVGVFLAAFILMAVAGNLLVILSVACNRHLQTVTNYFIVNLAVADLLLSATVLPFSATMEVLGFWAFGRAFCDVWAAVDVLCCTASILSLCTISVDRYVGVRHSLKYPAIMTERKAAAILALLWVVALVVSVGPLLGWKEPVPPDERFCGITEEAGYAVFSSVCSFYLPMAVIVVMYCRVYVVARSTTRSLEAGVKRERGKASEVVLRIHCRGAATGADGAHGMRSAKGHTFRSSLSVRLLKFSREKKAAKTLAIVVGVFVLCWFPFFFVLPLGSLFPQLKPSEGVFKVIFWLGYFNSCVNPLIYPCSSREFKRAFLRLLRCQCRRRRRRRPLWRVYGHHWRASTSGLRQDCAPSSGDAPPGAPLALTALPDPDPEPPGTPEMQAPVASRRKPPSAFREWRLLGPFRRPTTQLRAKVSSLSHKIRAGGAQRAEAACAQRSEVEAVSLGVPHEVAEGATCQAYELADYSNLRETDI
Experimental: Compounds of invention were incubated with 0.6 nM [^3H]Prozosin for 60 min. at 25° C. Non-specific binding was estimated in the presence of 10 μM phentolamine. Receptor proteins were filtered and washed, the filters were then counted to determine [^3H]Prozosin specifically bound. Compounds were screened at 1 μM or lower, using 1% DMSO as vehicle. Biochemical assay results are presented as the percent inhibition of specific binding in Table 9.

[3] = target: T2, human recombinant serotonin (5-Hydroxytryptamine) 5-HT6 receptor (Homo sapiens, UniProt P50406); assay: Serotonin 5-HT6 radioligand binding ([3H]LSD); conditions: read-out: Inhibition of ligand binding, Serotonin 5-HT6 (percent inhibition of specific binding); for inhibition at 1 µM: compound at 1 μM; for inhibition at 0.1 µM: compound at 0.1 μM
T2 construct: expressed in transfected cells; host or cells: human HeLa cells
Experimental: Compounds of the invention were incubated with 1.5 nM [3H]Lysergic acid diethylamide (LSD) for 120 min. at 37° C. […] Receptor proteins were filtered and washed, the filters were then counted to determine [3H]LSD specifically bound. Compounds were screened at 1 μM or lower, using 1% DMSO as vehicle. Biochemical assay results are presented as the percent inhibition of specific binding in Table 10.

[4] = target: T3, human recombinant adrenergic α2A receptor (Homo sapiens, UniProt P08913); assay: Adrenergic α2A radioligand binding ([3H]MK-912); conditions: compound at 1 μM
T3 construct: expressed in transfected cells; host or cells: insect Sf9 cells
T3 sequence (P08913 1-465): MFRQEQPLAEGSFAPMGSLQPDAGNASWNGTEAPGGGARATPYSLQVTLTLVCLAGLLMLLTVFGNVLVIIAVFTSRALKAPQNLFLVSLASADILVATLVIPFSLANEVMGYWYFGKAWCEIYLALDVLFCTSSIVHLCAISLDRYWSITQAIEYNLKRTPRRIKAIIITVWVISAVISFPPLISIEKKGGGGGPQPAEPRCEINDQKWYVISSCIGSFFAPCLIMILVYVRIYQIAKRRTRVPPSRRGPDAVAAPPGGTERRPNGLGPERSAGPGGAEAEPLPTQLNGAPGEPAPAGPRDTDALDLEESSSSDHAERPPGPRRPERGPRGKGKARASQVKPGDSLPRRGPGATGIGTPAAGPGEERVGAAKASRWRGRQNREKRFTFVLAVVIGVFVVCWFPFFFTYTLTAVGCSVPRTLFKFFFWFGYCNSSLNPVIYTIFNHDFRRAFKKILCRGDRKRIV
In short: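 Sf9-expressed human receptor in 50 mM Tris-HCl pH 7.4, 12.5 mM MgCl2, 2 mM EDTA; compounds at 1 μM or lower (1% DMSO) incubated with 1 nM [3H]MK-912 for 60 min at 25° C. Non-specific binding defined with 10 μM WB-4101; filtered bound radioactivity counted, reported as percent inhibition of specific binding.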

[5] = target: human dopamine D2L receptor (Homo sapiens, UniProt P14416); assay: Dopamine D2L radioligand binding ([3H]Spiperone); conditions: compound at 1 μM; for Inhibition of ligand binding, Dopamine D2L: 1 µM
Source text: Non-specific binding was estimated in the presence of […] Haloperidol. Receptor proteins were filtered and washed, the filters were then counted to determine [^3H]Spiperone specifically bound. […] Biochemical assay results are presented as the percent inhibition of specific binding in Table 9.

[6] = read-out: Inhibition of ligand binding, Serotonin 5-HT7 (percent inhibition of specific binding)
[7] = percent inhibition of specific binding, read-out: Inhibition of ligand binding, Adrenergic α1D
[8] = percent inhibition of specific binding, read-out: Inhibition of ligand binding, Adrenergic α2A
[9] = percent inhibition of specific binding, read-out: Inhibition of ligand binding, Dopamine D2L
[10] = percent inhibition of specific binding
[11] = read-out: Inhibition of ligand binding, Adrenergic α1D (percent inhibition of specific binding)
[12] = read-out: Inhibition of ligand binding, Adrenergic α2A (percent inhibition of specific binding)
[13] = […] [3H]Spiperone, read-out: Inhibition of ligand binding, Dopamine D2L (percent inhibition of specific binding)

Chain of human dopamine D2L receptor (P14416 whole entry): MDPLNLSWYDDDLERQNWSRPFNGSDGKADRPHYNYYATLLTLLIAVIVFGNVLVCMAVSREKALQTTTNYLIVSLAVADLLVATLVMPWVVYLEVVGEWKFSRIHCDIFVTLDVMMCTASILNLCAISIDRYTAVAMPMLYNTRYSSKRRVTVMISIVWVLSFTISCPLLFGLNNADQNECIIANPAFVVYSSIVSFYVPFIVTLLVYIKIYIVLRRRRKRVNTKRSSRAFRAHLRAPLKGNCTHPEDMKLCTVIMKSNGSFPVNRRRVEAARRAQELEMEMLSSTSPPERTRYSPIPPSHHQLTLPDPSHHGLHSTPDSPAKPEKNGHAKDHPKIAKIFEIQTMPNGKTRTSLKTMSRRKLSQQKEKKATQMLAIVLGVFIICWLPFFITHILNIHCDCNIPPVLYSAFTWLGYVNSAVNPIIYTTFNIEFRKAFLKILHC
Chain of human recombinant serotonin (5-Hydroxytryptamine) 5-HT7 receptor (P34969 whole entry): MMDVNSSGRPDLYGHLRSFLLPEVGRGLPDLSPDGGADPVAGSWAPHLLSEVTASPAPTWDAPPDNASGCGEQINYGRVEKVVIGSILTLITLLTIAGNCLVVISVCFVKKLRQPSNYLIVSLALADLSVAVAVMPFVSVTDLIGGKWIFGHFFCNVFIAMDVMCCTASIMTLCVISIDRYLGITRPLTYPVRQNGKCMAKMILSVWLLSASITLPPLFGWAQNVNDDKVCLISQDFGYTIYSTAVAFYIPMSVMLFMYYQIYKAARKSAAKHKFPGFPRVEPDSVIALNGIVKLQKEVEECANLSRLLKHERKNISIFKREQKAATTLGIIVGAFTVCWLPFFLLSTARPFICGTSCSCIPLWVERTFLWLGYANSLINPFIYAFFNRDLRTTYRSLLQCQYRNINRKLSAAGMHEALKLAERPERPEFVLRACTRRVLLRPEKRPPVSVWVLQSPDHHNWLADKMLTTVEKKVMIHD
T2 sequence (P50406 whole entry): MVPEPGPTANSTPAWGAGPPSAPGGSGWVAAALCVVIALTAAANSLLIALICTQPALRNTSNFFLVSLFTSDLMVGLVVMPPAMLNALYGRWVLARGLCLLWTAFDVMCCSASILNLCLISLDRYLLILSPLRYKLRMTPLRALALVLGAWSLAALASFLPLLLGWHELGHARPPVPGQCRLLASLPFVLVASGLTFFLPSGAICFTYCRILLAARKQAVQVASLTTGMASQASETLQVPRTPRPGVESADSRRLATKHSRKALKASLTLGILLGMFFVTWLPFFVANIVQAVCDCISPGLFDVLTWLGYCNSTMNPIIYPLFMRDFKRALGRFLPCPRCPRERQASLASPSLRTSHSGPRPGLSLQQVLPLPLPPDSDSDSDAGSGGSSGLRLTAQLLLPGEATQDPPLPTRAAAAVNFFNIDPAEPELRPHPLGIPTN

In the case of `CCCC/C(=C\n1c2c(c3cc(Cl)ccc31)CN(C)CC2)c1ccc(F)cc1` [Compound 208, (E)-8-chloro-5-(2-(4-fluorophenyl)hex-1-enyl)-2-methyl-2,3,4,5-tetrahydro-1H-pyrido[4,3-b]indole], the inhibition at 1 µM [1, 6] is reported as 100%, the inhibition at 1 µM [2, 7] is reported as 89% and the inhibition at 1 µM [3] is reported as 103%. For the same compound, the inhibition at 1 µM [4, 8] was 99% and the inhibition at 1 µM [5, 9] was 78%.

With `CN1CCc2c(c3cc(Cl)ccc3n2CC(O)(c2ccc(F)cc2)C2CC2)C1` (centres unmarked) [Compound 82, 2-(8-chloro-1,2,3,4-tetrahydro-2-methylpyrido[4,3-b]indol-5-yl)-1-cyclopropyl-1-(4-fluorophenyl)ethanol] the “Inhibition of ligand binding, Serotonin 5-HT7 (percent inhibition of specific binding)” value ([1]; compound at 0.1 μM, 0.1 µM) was 95%, the inhibition at 0.1 µM ([1]; compound at 0.1 μM, read-out: Inhibition of ligand binding, Serotonin 5-HT7 (percent inhibition of specific binding)) was 86% and the inhibition at 1 µM [1, 6] was 93%. The inhibition at 1 µM [2, 7] was 62%, the inhibition at 0.1 µM [3] was 90% and the inhibition at 1 µM [3] was 103%. The inhibition at 1 µM [4, 8] was 96%, the “Inhibition of ligand binding, Dopamine D2L” value (“Inhibition … Dopamine D2L” below) [5, 10] was 45% and the inhibition at 1 µM [5, 9] was 39%.

`COc1ccc(C#Cn2c3c(c4cc(Cl)ccc42)CN(C)CC3)cc1F` [Compound No. 477, 8-chloro-5-((3-fluoro-4-methoxyphenyl)ethynyl)-2-methyl-2,3,4,5-tetrahydro-1H-pyrido[4,3-b]indole] was tested, and the inhibition at 1 µM [1, 6] was 65%, the inhibition at 1 µM [2, 11] was 79% and the inhibition at 1 µM [3] was 89%. The inhibition at 1 µM [4, 12] was 97% and the inhibition at 1 µM [5, 13] was 25%.

`Cc1ccc2c(c1)c1c(n2C#Cc2ccc(Cl)cc2)CCN(C)C1` [Compound No. 481, 5-((4-chlorophenyl)ethynyl)-2,8-dimethyl-2,3,4,5-tetrahydro-1H-pyrido[4,3-b]indole] was tested, and the inhibition at 1 µM [1, 6] was 84%, the inhibition at 1 µM [2, 11] was 77% and the inhibition at 1 µM [3] was 87%. For the same compound, the inhibition at 1 µM [4, 12] was 99% and the inhibition at 1 µM [5, 13] was 24%.

`C/C(=C/n1c2c(c3cc(Cl)ccc31)CN(C)CC2)c1ccccc1F` [Compound 212, (Z)-8-chloro-5-(2-(2-fluorophenyl)prop-1-enyl)-2-methyl-2,3,4,5-tetrahydro-1H-pyrido[4,3-b]indole] gave an inhibition at 1 µM [1, 6] of 98%, an inhibition at 1 µM [2, 7] of 78% and an inhibition at 1 µM [3] of 97%. It also gave an inhibition at 1 µM [4, 8] of 88% and an inhibition at 1 µM [5, 9] of 32%.

Compound `Cc1ccc2c(c1)c1c(n2CC(O)c2ccc(F)cc2)CCN(C)C1` (centres unmarked) [Compound 172, 2-(2,8-dimethyl-3,4-dihydro-1H-pyrido[4,3-b]indol-5(2H)-yl)-1-(4-fluorophenyl)ethanol] has an inhibition at 1 µM [1, 6] of 100%, an inhibition at 1 µM [2, 7] of 88% and an inhibition at 1 µM [3] of 93%. It also gave an inhibition at 1 µM [4, 8] of 98% and an inhibition at 1 µM [5, 9] of 36%.

`C=C(Cn1c2c(c3cc(C)ccc31)CN(C)CC2)c1ccc(F)cc1` [Compound 132, 5-(2-(4-fluorophenyl)allyl)-2,3,4,5-tetrahydro-2,8-dimethyl-1H-pyrido[4,3-b]indole] showed an inhibition at 1 µM [1, 6] of 103%, an inhibition at 1 µM [2, 7] of 93% and an inhibition at 1 µM [3] of 100%. The inhibition at 1 µM [4, 8] was 97% and the inhibition at 1 µM [5, 9] was 91%.

Compound `C/C(=C\n1c2c(c3cc(Cl)ccc31)CN(C)CC2)c1ccc(Cl)cc1` [Compound 100, (E)-8-chloro-5-(2-(4-chlorophenyl)prop-1-enyl)-2,3,4,5-tetrahydro-2-methyl-1H-pyrido[4,3-b]indole] has an inhibition at 1 µM [1, 6] of 99%, an inhibition at 1 µM [2, 7] of 87% and an inhibition at 0.1 µM [3] of 62%. For the same compound, the inhibition at 1 µM [3] was 95%, the inhibition at 1 µM [4, 8] was 101% and the “Inhibition … Dopamine D2L” value [5, 10] was 68%. For the same compound, the inhibition at 1 µM [5, 9] was 67%.

`C=C(Cn1c2c(c3cc(Cl)ccc31)CN(C)CC2)c1ccc(F)cc1` [Compound 128, 8-chloro-5-(2-(4-fluorophenyl)allyl)-2,3,4,5-tetrahydro-2-methyl-1H-pyrido[4,3-b]indole] gave an inhibition at 1 µM [1, 6] of 98%, an inhibition at 1 µM [2, 7] of 91% and an inhibition at 0.1 µM [3] of 94%. It also gave an inhibition at 1 µM [3] of 101%, an inhibition at 1 µM [4, 8] of 99% and an inhibition at 1 µM [5, 9] of 97%.

In the case of `CN1CCc2c(c3cc(Cl)ccc3n2/C=C(/c2ccc(F)cc2)C2CC2)C1` [Compound 110, (E)-8-chloro-5-(2-cyclopropyl-2-(4-fluorophenyl)vinyl)-2,3,4,5-tetrahydro-2-methyl-1H-pyrido[4,3-b]indole], the inhibition at 1 µM [1, 6] is reported as 92%, the inhibition at 1 µM [2, 7] is reported as 86% and the inhibition at 0.1 µM [3] is reported as 102%. The inhibition at 1 µM [3] was 104%, the inhibition at 1 µM [4, 8] was 99% and the “Inhibition … Dopamine D2L” value [5, 10] was 98%. For the same compound, the inhibition at 1 µM [5, 9] was 96%.
